In brackets after ≈: the same amount, converted by molar mass. Where two headings read alike, the source gives them in different places.
Tests used:
Format in all cases: cell-based
HIV (HTLV-IIIB strain) = assay: Infection inhibitory test: anti-HIV activity, MT-4 cells infected with HIV, MTT; conditions: Human immunodeficiency virus 1, IIIB, MT4, 120 h
Method: Anti-HIV activity and cytotoxicity are tested in the following manners.
(§1) (1) A human T cell MOLT-4 clone 8, a strain continuously infected with HIV (HTLV-IIIB strain), was incubated in RPMI-1640 medium containing 10% bovine fetus serum and the supernatant was isolated by filtration. After the determination of virus titer, the supernatant was stored at -80° C. A compound to be tested was diluted with the same medium to a given concentration and poured into 96-well microtiter plates by 100 μl/well. To the well is added 50 μl (2.5×10^4 cells) MT-4 cell suspensions, followed by the addition of 50 μl [600 pfu (plaque forming unit)] HIV-containing supernatant previously diluted with the same medium.
(§2) (2) After 5-day-incubation at 37° C. in a carbon dioxide incubator, 30 μl MTT {3-(4,5-diemthylthiazol-2-yl)-2,5-diphenyltetrazolium bromide), 5 mg/ml in PBS} was added to each well, and the incubation was continued for another 1 hour, during which surviving cells reduce MTT to precipitate folmazan.
(§3) The resultant folmazan was eluted by replacing 150 μl supernatant of a culture in each well by 150 μl solution comprising 10% triton X - 100 and isopropanol containing 0.4 v/v % HCl and shaking by means of a plate mixer. The resultant folmazan was assayed at 0D 540 nm, and the result was evaluated by comparison with that obtained in a control test.
IC50 is defined as a concentration of the compound (I) that gives a 50% inhibition against vital cytotoxicity.

MT-4 cell = assay: Cytotoxicity, MT-4 cells without virus, MTT; conditions: 50% cytotoxicity; MT-4 cells without virus, 5-day incubation, MTT
Method: as §1, §2, §3
(§4) Cytotoxicity of a compound (I) was evaluated in a similar manner as described in 1 above except that 50 μl of the same medium is added to each well in place of the HIV-containing supernatant (viral solurtion).
(§5) CC50 is defiend as a concentration of the compound (I) that gives 50% cytotoxicity.

[1] = Cytotoxicity, MT-4 cells without virus, MTT; conditions: human
Method: as §1, §2, §3, §4, §5

[2] = 50% inhibition of viral cytotoxicity, MT-4 cells, 5-day incubation at 37 °C, MTT, read-out: IC50

Structure (SMILES) | IC50 (HIV (HTLV-IIIB strain)) [µg/mL] | CC50 (MT-4 cell) [µg/mL] | IC50 (HIV (HTLV-IIIB strain); [2]) [µg/mL] | CC50 at 120 h ([1]; mt-4 cells) [µg/mL] | CC50 at 120 h ([1]; 50% cytotoxicity, MT-4 cells without virus, 5-day incubation, MTT, read-out: CC50) [µg/mL]
Cc1cn([C@H]2C[C@H](N=[N+]=[N-])[C@@H](CO)O2)c(=O)[nH]c1=O [AZT, azidodeoxythymidine, reference compound] | 0.005 to 0.01 (≈ 0.0187 to 0.0374 µM) | 25 (≈ 93.5 µM) |  |  | 
CCc1nc(C)n(COCc2ccccc2)c1Sc1ccccc1 [Compound I-1, 1-benzyloxymethyl-4-ethyl-2-methyl-5-phenylthioimidazole] |  |  | 0.03 to 0.06 (≈ 0.0886 to 0.177 µM) |  | 
CCc1ncn(COCc2ccccc2)c1Sc1ccccc1 [Compound I-4, 1-benzyloxymethyl-4-ethyl-5-phenylthioimidazole] |  |  | 0.13 to 0.25 (≈ 0.401 to 0.771 µM) | 12.5 to 25 (≈ 38.5 to 77.1 µM) | 
c1ccc(COCn2cncc2Sc2ccccc2)cc1 [Compound I-5, 1-benzyloxymethyl-5-phenylthioimidazoe nitrate] |  |  | 0.13 to 0.25 | 12.5 to 25 | 
CCCc1ncn(COCc2ccccc2)c1Sc1ccccc1 [Compound I-9] |  |  |  | 12.5 to 25 (≈ 36.9 to 73.9 µM) | 
CCc1nc(Br)n(COCc2ccccc2)c1Sc1ccccc1 [Compound I-12] |  |  | 0.06 to 0.13 (≈ 0.149 to 0.322 µM) | 12.5 to 25 (≈ 31 to 62 µM) | 
CCCc1nc(Br)n(COCc2ccccc2)c1Sc1ccccc1 [Compound I-13] |  |  |  | 12.5 to 25 (≈ 29.9 to 59.9 µM) | 
CCc1nc(C)n(COCc2ccccc2)c1Sc1cc(C)cc(C)c1 [Compound I-14] |  |  | 0.016 to 0.032 (≈ 0.0437 to 0.0873 µM) | 10 to 20 (≈ 27.3 to 54.6 µM) | 
CCOCn1c(C)nc(CC)c1Sc1cc(C)cc(C)c1 [Compound I-15] |  |  | 0.063 to 0.12 (≈ 0.207 to 0.394 µM) | 10 to 20 (≈ 32.8 to 65.7 µM) | 
Cc1cc(C)cc(Sc2c(C(C)C)nc(C)n2COCc2ccccc2)c1 [Compound I-16] |  |  | 0.016 to 0.031 (≈ 0.042 to 0.0815 µM) |  | 
Cc1nc(C(C)C)c(Sc2ccccc2)n1COCc1ccccc1 [Compound I-17] |  |  | 0.016 (≈ 0.0454 µM) |  | 
CCOCn1c(C)nc(C(C)C)c1Sc1ccccc1 [Compound I-18] |  |  | 0.016 (≈ 0.0551 µM) | 25 to 50 (≈ 86.1 to 172 µM) | 
CCc1nc(C)n(COCCO)c1Sc1cc(C)cc(C)c1 [Compound I-29, 5-(3,5-Dimethylphenylthio)-4-ethyl-1-[(2-hydroxyethoxy)-methyl]-2-methylimidazole] |  |  | 0.13 to 0.25 (≈ 0.406 to 0.78 µM) | 25 to 50 (≈ 78 to 156 µM) | 
Cc1nc(C(C)C)c(Cc2ccccc2)n1COCc1ccccc1 [Compound I-42, 5-Benzyl-1-benzyloxymethyl-4-isopropyl-2-methylimidazole] |  |  | 0.016 (≈ 0.0478 µM) | 3.1 to 6.25 (≈ 9.27 to 18.7 µM) | 
Cc1cc(C)cc(Cc2c(C(C)C)nc(C)n2COCc2ccccc2)c1 [Compound I-50] |  |  | 0.016 (≈ 0.0441 µM) | 6.25 to 12.5 (≈ 17.2 to 34.5 µM) | 
CCOCn1c(C)nc(C(C)C)c1Cc1cccnc1 [Compound I-58] |  |  | 0.5 (≈ 1.83 µM) | > 100 | 
CCOCn1c(C)nc(C(C)C)c1Cc1cc(Cl)cc(Cl)c1 [Compound I-67] |  |  | 0.005 (≈ 0.0147 µM) | 6.25 to 12.5 (≈ 18.3 to 36.6 µM) | 
Cc1nc(C(C)C)c(Cc2cc(F)cc(F)c2)n1COCc1ccccc1 [Compound I-69] |  |  | 0.003 (≈ 0.0081 µM) | 6.25 to 12.5 (≈ 16.9 to 33.7 µM) | 
CCOCn1c(C)nc(Cc2cc(Cl)cc(Cl)c2)c1C(C)C [Compound I-90] |  |  | 0.5 to 1 (≈ 1.47 to 2.93 µM) | 1 to 10 (≈ 2.93 to 29.3 µM) | 
Cc1nc(Cc2cc(Cl)cc(Cl)c2)c(C(C)C)n1COCc1ccccc1 [Compound I-91] |  |  | 0.5 to 1 (≈ 1.24 to 2.48 µM) | 10 to 100 (≈ 24.8 to 248 µM) | 
Cc1nc(Cc2cc(F)cc(F)c2)c(C(C)C)n1COCc1ccccc1 [Compound I-92] |  |  | 0.25 (≈ 0.675 µM) | 6.25 to 12.5 (≈ 16.9 to 33.7 µM) | 
CCOCn1c(C)nc(Cc2cc(F)cc(F)c2)c1C(C)C [Compound I-93] |  |  | 0.06 (≈ 0.195 µM) | 12.5 to 25 (≈ 40.5 to 81.1 µM) | 
CC(C)=CCN1Cc2cc(Cl)cc3[nH]c(=S)n(c23)C[C@@H]1C [TIBO (R-82913), reference compound] |  |  | 0.13 to 0.25 (≈ 0.404 to 0.777 µM) |  | 12.5 to 25 (≈ 38.8 to 77.7 µM)

From patent publication US5326780A, “Imidazole derivatives having anti-HIV activity” (priority 1992, dated 1994)
